Experimental findings from patent US10508085B2, “Compounds and methods for IDO and TDO modulation, and indications therefor” (Plexxikon Inc., priority 2016, dated 2019) are described below.

The target in test [1] is T1, Human Indoleamine 2,3-dioxygenase (IDO) (Homo sapiens, UniProt P14902).
T1 construct: His tag (N); made in house; host or cells: E. coli
Nature of the test: Human IDO enzymatic assay (kynurenine level). The test is classed as biochemical. The following applies: 6 nM IDO, 10 μM L-Trp; geometric mean; read-out: IDO1 GMean: IC50 (μM) (Biochemical Assay). On the procedure: (§1) Human Indoleamine 2,3-dioxygenase (IDO) and Tryptophan 2,3-dioxygenase (TDO) enzymatic assay
(§2) Human IDO or TDO with N-terminal His tag is purified in E. coli. The IDO enzymatic assay is performed using 6 nM IDO and 10 μM L-Trp in the presence of 10 mM ascorbic acid, 5 μM methylene blue, 100 nM catalase and 0.01% Tween 20 in 50 mM sodium phosphate buffer (pH 6.5). 19 μL of above reaction mixture is added to wells of 384 well reaction plate containing […] of various concentrations of test compound or DMSO vehicle and incubated for 20 minutes at room temperature. The TDO enzymatic reaction assay is performed using 1 nM TDO and 350 μM L-Trp in the presence of 10 mM ascorbic acid, 0.4 μM methylene blue, 100 nM catalase and 0.01% Tween 20 in 50 mM sodium phosphate buffer (pH 6.5). 19 μL of above reaction mixture is added to wells of 384 well reaction plate containing 1 μL of various concentrations of test compound or DMSO vehicle and incubated for 70 minutes at room temperature. 16 wells containing all the components of reaction mixture and 5% DMSO serve as high control. 16 well containing all the components except enzyme of reaction mixture and 5% DMSO serves as low control. Both IDO and TDO enzymatic reactions are stopped by addition of […] of 30% TCA and incubated 30 minutes at 50° C. to hydrolyze N-formylkynurenine produced by IDO or TDO to kynurenine. Upon measuring the kynurenine level, the percentage inhibition is calculated at individual concentrations relative to high and low controls. The data is analyzed by using nonlinear regression to generate IC50 values.

Test [2] addresses T2, Human Tryptophan 2,3-dioxygenase (TDO) (Homo sapiens, UniProt P48775).
T2 construct: His tag (N); made in house; host or cells: E. coli
Nature of the test: Human TDO enzymatic assay (kynurenine level). The test is classed as biochemical. As to conditions: 1 nM TDO, 350 μM L-Trp; geometric mean; read-out: TDO GMean: IC50 (μM) (Biochemical Assay). How it is done: as §1, §2

T2 sequence (P48775 whole entry): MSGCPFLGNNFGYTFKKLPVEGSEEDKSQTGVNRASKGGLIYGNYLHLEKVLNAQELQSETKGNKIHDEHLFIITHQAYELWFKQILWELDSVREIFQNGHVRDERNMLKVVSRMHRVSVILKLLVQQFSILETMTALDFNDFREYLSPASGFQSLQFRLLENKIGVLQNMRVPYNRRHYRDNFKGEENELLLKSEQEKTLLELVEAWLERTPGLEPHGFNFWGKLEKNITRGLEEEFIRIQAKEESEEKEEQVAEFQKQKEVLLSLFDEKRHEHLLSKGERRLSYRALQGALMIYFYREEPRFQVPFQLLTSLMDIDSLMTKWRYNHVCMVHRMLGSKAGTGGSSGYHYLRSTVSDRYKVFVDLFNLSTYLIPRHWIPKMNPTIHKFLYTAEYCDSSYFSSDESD
T1 sequence (P14902 whole entry): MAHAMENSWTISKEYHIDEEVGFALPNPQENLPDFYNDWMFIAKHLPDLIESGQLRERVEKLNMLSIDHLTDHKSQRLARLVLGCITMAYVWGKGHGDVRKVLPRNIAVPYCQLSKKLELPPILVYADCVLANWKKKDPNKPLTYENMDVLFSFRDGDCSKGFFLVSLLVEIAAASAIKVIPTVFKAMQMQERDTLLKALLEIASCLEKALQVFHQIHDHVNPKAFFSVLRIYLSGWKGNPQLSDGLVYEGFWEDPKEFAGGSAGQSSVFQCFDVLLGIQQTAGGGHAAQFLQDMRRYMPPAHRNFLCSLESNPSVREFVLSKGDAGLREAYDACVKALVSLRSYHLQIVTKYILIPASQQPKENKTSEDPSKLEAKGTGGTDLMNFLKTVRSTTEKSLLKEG

By IC50 is commonly meant the point on the concentration scale where inhibition reaches its midpoint. `COc1ccc(CNC(=O)N2CCC(C(C)(C)[C@H](O)c3cc(Cl)cc4cn[nH]c34)CC2)cn1` [Compound P-0585, (S)-4-(1-(5-chloro-1H-indazol-7-yl)-1-hydroxy-2-methylpropan-2-yl)-N-((6-methoxypyridin-3-yl)methyl)piperidine-1-carboxamide]: the 50% inhibitory concentration (IC50) in test [1] and in test [2] was 0.0001 to 10 µM in each case.
In the case of `CN(C)c1ccc(CNC(=O)N2CCC(C(C)(C)[C@H](O)c3cc(Cl)cc4cn[nH]c34)CC2)cn1` [Compound P-0586, (S)-4-(1-(5-chloro-1H-indazol-7-yl)-1-hydroxy-2-methylpropan-2-yl)-N-((6-(dimethylamino)pyridin-3-yl)methyl)piperidine-1-carboxamide], the IC50 in test [1] and in test [2] was 0.0001 to 10 µM in each case.
On to `CC(C)(C1CCN(C(=O)NCC#N)CC1)[C@H](O)c1cc(Cl)cc2cn[nH]c12` [Compound P-0587, (S)-4-(1-(5-chloro-1H-indazol-7-yl)-1-hydroxy-2-methylpropan-2-yl)-N-(cyanomethyl) piperidine-1-carboxamide], for which the IC50 in test [1] and in test [2] was 0.0001 to 10 µM each time.
Turning to `CC(C)(C1CCN(C(=O)NC2CCC(F)(F)CC2)CC1)[C@H](O)c1cc(Cl)cc2cn[nH]c12` [Compound P-0588, (S)-4-(1-(5-chloro-1H-indazol-7-yl)-1-hydroxy-2-methylpropan-2-yl)-N-(4,4-difluorocyclohexyl) piperidine-1-carboxamide], the half-maximal inhibitory concentration (IC50) in test [1] and in test [2] was 0.0001 to 10 µM each time.
On to `CC(C)(C1CCN(C(=O)N[C@H]2CCOC2)CC1)[C@H](O)c1cc(Cl)cc2cn[nH]c12` [Compound P-0589, 4-((S)-1-(5-chloro-1H-indazol-7-yl)-1-hydroxy-2-methylpropan-2-yl)-N-((S)-tetrahydrofuran-3-yl)piperidine-1-carboxamide], for which the half-maximal inhibitory concentration (IC50) in test [1] and in test [2] was 0.0001 to 10 µM in each case.
Consider `CC(C)(C1CCN(C(=O)NCc2ccc(C#N)nc2)CC1)[C@H](O)c1cc(Cl)cc2cn[nH]c12` [Compound P-0590, (S)-4-(1-(5-chloro-1H-indazol-7-yl)-1-hydroxy-2-methylpropan-2-yl)-N-((6-cyanopyridin-3-yl)methyl)piperidine-1-carboxamide], for which the IC50 in test [1] and in test [2] was 0.0001 to 10 µM each time.
For `CC(C)(C1CCN(C(=O)N[C@@H]2CC[C@@H](O)C2)CC1)[C@H](O)c1cc(Cl)cc2cn[nH]c12` [Compound P-0591, 4-((S)-1-(5-chloro-1H-indazol-7-yl)-1-hydroxy-2-methylpropan-2-yl)-N-((1R,3R)-3-hydroxycyclopentyl) piperidine-1-carboxamide], the half-maximal inhibitory concentration (IC50) in test [1] and in test [2] was 0.0001 to 10 µM each time.
Regarding `CC(C)(C1CCN(C(=O)NC2CC(F)(F)C2)CC1)[C@H](O)c1cc(Cl)cc2cn[nH]c12` [Compound P-0592, (S)-4-(1-(5-chloro-1H-indazol-7-yl)-1-hydroxy-2-methylpropan-2-yl)-N-(3,3-difluorocyclobutyl) piperidine-1-carboxamide], the concentration for half-maximal inhibition (IC50) in test [1] and in test [2] was 0.0001 to 10 µM each time.
Turning to `CC(C)(C1CCN(C(=O)N[C@@H]2CCOC2)CC1)[C@H](O)c1cc(Cl)cc2cn[nH]c12` [Compound P-0593, 4-((S)-1-(5-chloro-1H-indazol-7-yl)-1-hydroxy-2-methylpropan-2-yl)-N-((R)-tetrahydrofuran-3-yl)piperidine-1-carboxamide], the IC50 in test [1] and in test [2] was 0.0001 to 10 µM in each case.
In the case of `CC(C)NC(=O)N1CCC(C(C)(C)[C@H](O)c2cc(Cl)cc3cn[nH]c23)CC1` [Compound P-0594, (S)-4-(1-(5-chloro-1H-indazol-7-yl)-1-hydroxy-2-methylpropan-2-yl)-N-isopropylpiperidine-1-carboxamide], the 50% inhibitory concentration (IC50) in test [1] and in test [2] was 0.0001 to 10 µM throughout.
On to `CC(C)(C1CCN(C(=O)NC2COC2)CC1)[C@H](O)c1cc(Cl)cc2cn[nH]c12` [Compound P-0595, (S)-4-(1-(5-chloro-1H-indazol-7-yl)-1-hydroxy-2-methylpropan-2-yl)-N-(oxetan-3-yl)piperidine-1-carboxamide], for which the IC50 in test [1] and in test [2] was 0.0001 to 10 µM in each case.
Turning to `CC(C)(C1CCN(C(=O)NCCCF)CC1)[C@H](O)c1cc(Cl)cc2cn[nH]c12` [Compound P-0596, (S)-4-(1-(5-chloro-1H-indazol-7-yl)-1-hydroxy-2-methylpropan-2-yl)-N-(3-fluoropropyl) piperidine-1-carboxamide], the 50% inhibitory concentration (IC50) in test [1] and in test [2] was 0.0001 to 10 µM throughout.
As to `CC(C)(C1CCN(C(=O)NCCCC#N)CC1)[C@H](O)c1cc(Cl)cc2cn[nH]c12` [Compound P-0597, (S)-4-(1-(5-chloro-1H-indazol-7-yl)-1-hydroxy-2-methylpropan-2-yl)-N-(3-cyanopropyl) piperidine-1-carboxamide], the IC50 in test [1] and in test [2] was 0.0001 to 10 µM each time.
As to `CONC(=O)N1CCC(C(C)(C)[C@H](O)c2cc(Cl)cc3cn[nH]c23)CC1` [Compound P-0598, (S)-4-(1-(5-chloro-1H-indazol-7-yl)-1-hydroxy-2-methylpropan-2-yl)-N-methoxypiperidine-1-carboxamide], the IC50 in test [1] and in test [2] was 0.0001 to 10 µM throughout.
Turning to `CC1(CNC(=O)N2CCC(C(C)(C)[C@H](O)c3cc(Cl)cc4cn[nH]c34)CC2)CC1` [Compound P-0599, (S)-4-(1-(5-chloro-1H-indazol-7-yl)-1-hydroxy-2-methylpropan-2-yl)-N-((1-methylcyclopropyl)methyl)piperidine-1-carboxamide], the IC50 in test [1] and in test [2] was 0.0001 to 10 µM each time.
Take `CC(C)(C1CCN(C(=O)N[C@H]2C[C@H](O)C2)CC1)[C@H](O)c1cc(Cl)cc2cn[nH]c12` [Compound P-0600, 4-((S)-1-(5-chloro-1H-indazol-7-yl)-1-hydroxy-2-methylpropan-2-yl)-N-((1r,3S)-3-hydroxycyclobutyl) piperidine-1-carboxamide]: the IC50 in test [1] and in test [2] was 0.0001 to 10 µM in each case.
On to `CC(C)(C1CCN(C(=O)NCc2ccc(F)cn2)CC1)[C@H](O)c1cc(Cl)cc2cn[nH]c12` [Compound P-0601, (S)-4-(1-(5-chloro-1H-indazol-7-yl)-1-hydroxy-2-methylpropan-2-yl)-N-((5-fluoropyridin-2-yl)methyl) piperidine 1-carboxamide], for which the IC50 in test [1] and in test [2] was 0.0001 to 10 µM in each case.
With `CC(C)(C1CCN(C(=O)NCc2ccc(F)cc2)CC1)[C@H](O)c1cc(Cl)cc2cn[nH]c12` [Compound P-0602, (S)-4-(1-(5-chloro-1H-indazol-7-yl)-1-hydroxy-2-methylpropan-2-yl)-N-(4-fluorobenzyl) piperidine-1-carboxamide], the 50% inhibitory concentration (IC50) in test [1] and in test [2] was 0.0001 to 10 µM in each case.
With `CC(C)(C1CCN(C(=O)Nc2ccccc2)CC1)C(O)c1cc(Cl)cc2[nH]ncc12` (stereo not drawn) [Compound P-0603, 4-(1-(6-chloro-1H-indazol-4-yl)-1-hydroxy-2-methylpropan-2-yl)-N-phenylpiperidine-1-carboxamide], the IC50 in test [1] and in test [2] was 0.0001 to 10 µM in each case.
Turning to `CC(C)(C1CCN(C(=O)Nc2ccc(Cl)nc2)CC1)C(O)c1cc(Cl)cc2cn[nH]c12` (stereo not drawn) [Compound P-0604, 4-(1-(5-chloro-1H-indazol-7-yl)-1-hydroxy-2-methylpropan-2-yl)-N-(6-chloropyridin-3-yl)piperidine-1-carboxamide], the half-inhibitory concentration (IC50) in test [1] and in test [2] was 0.0001 to 10 µM throughout.
`COc1ccc(NC(=O)N2CCC(C(C)(C)C(O)c3cc(Cl)cc4cn[nH]c34)CC2)cn1` (stereo not drawn) [Compound P-0605, 4-(1-(5-chloro-1H-indazol-7-yl)-1-hydroxy-2-methylpropan-2-yl)-N-(6-methoxypyridin-3-yl)piperidine-1-carboxamide]: the IC50 in test [1] and in test [2] was 0.0001 to 10 µM in each case.
`CC(C)(C1CCN(C(N)=O)CC1)C(O)c1cc(Cl)cc2[nH]ncc12` (stereo not drawn) [Compound P-0606, 4-(1-(6-chloro-1H-indazol-4-yl)-1-hydroxy-2-methylpropan-2-yl)piperidine-1-carboxamide]: the IC50 in test [1] and in test [2] was 0.0001 to 10 µM in each case.
Take `CC(C)(C)OC(=O)N1CCC(C(C)(C)C(O)c2cc(Cl)cc3[nH]ncc23)CC1` (stereo not drawn) [Compound P-0607, tert-butyl 4-(1-(6-chloro-1H-indazol-4-yl)-1-hydroxy-2-methylpropan-2-yl)piperidine-1-carboxylate]: the IC50 in test [1] and in test [2] was 0.0001 to 10 µM throughout.
For the compound `CC(C)(C1CCN(C(=O)CC2CC2)CC1)C(O)c1cc(Cl)cc2[nH]ncc12` (stereo not drawn) [Compound P-0608, 1-(4-(1-(6-chloro-1H-indazol-4-yl)-1-hydroxy-2-methylpropan-2-yl)piperidin-1-yl)-2-cyclopropylethan-1-one], the half-maximal inhibitory concentration (IC50) in test [1] and in test [2] was 0.0001 to 10 µM in each case.
